Legend:
Type in all cases: cell-based
HIV-1 NL 4.3 [1] = experiment: HIV-1 replication in activated T cells (PBMC, p24 Ag ELISA); conditions: for anti-HIV activity in activated T cells (in words): SPPs 10 μM, compared with HU 100 μM, HU+ddI or untreated control; for HIV activated cells (% p24 compared to not treated control): activated T cells, 7 days, SPPs and Imatinib 10 μM, HU 100 μM, ddI 2 μM; for Antiviral activity in activated cells: class symbol, Table 6
Method: The experimental setup described below allows us to detect direct antiviral activity of a compound.
Human PBMC, obtained from healthy, normal donors, were stimulated for two days with PHA 5 μg/ml. Then cells were infected with HIV-1 NL 4.3, IL-2 was added (20 U/ml), cells were plated (10^5 cells per well in 200 μl) and drug treatment started. […] The control was left untreated. After 7 days of incubation at 37° C. supernatants were harvested and HIV-1 p24 Ag was measured by ELISA.

[2] = test system: primary human CD4 T-lymphocytes; experiment: Apoptosis in primary CD4 T cells (Annexin V and 7-AAD staining); conditions: SPPs 10 μM; for apoptotic effect (in words): compared with HU 100 μM, HU+ddI or untreated control; for apoptosis %: total apoptotic events compared to untreated control, day 10, Imatinib 10 μM, HU 100 μM, ddI 2 μM
Method: (§1) Unstimulated (quiescent/resting, day 0 to 5) primary human CD4 T-lymphocytes were obtained by magnetic bead separation from healthy, normal donors. After five days in culture, cells were activated with PHA (5 μg/ml) to induce hyperproliferation then, at day 7, IL-2 (20 U/ml) was added (stimulated, day 6 to 10). All available compounds were tested at a concentration of 10 μM. […] At day 10, cells were harvested. Proliferation of T cells, cultured as described above, was studied by staining the cells with carboxyfluorescein diacetate-succinimidyl ester (CFSE) at day 0 (immediately after infection). For data analysis, the mitotic index (M) was used, calculating the sum of mitotic events at each proliferation cycle. To extract a relative number, M was normalized to the total number of cells acquired using the equation M=Σ[(Xn(T)−Xn(T)/2^n)], that gives the number of mitotic events from the experimentally obtained values of the proportion of T cells under each division peak n (Xn) and the total T cells (T). To study the effect of the compounds on apoptosis T cells were cultured as described above and at day 10 cells were stained with Annexin V and 7-AAD, in order to determine the percentage of total apoptotic events.
We determined the capacity of the compounds to affect the percentages of apoptotic events after 10 days of treatment in primary CD4 T cells.

HIV-1 NL 4.3 [3] = experiment: HIV-1 replication in quiescent CD4 T cells (p24 Ag ELISA); conditions: for anti-HIV activity in quiescent cells (in words) / HIV quiescent cells (percentage p24 compared to the untreated control): SPPs 10 μM; for anti-HIV activity in quiescent cells (in words): compared with HU 100 μM, HU+ddI or untreated control; for Antiviral activity in quiescent cells: class symbol, Table 6; for HIV quiescent cells (percentage p24 compared to the untreated control): quiescent CD4 T cells, day 10, HU 100 μM, HU 100 μM+ddI 2 μM
Method: Unstimulated (quiescent/resting, day 0 to 5) human CD4 T-lymphocytes, obtained by magnetic bead separation from healthy, normal donors, were infected with HIV-1 NL 4.3. After five days in culture, cells were stimulated with PHA (5 μg/ml) to induce proliferation, and then, at day 7, IL-2 (20 U/ml) was added (stimulated, day 6 to 10). All available compounds were tested at a concentration of 10 μM. HU 100 μM and HU 100 μM+ddI 2 μM were also employed as comparators and the negative control was left untreated. At day 10, cells and supernatants were harvested and HIV-1 p24 Ag was measured by ELISA. HIV replication was expressed as percentage p24 compared to the untreated control.

[4] = test system: primary human CD4 T-lymphocytes; experiment: Cell hyperproliferation in primary T cells (CFSE staining, mitotic index); conditions: for mitotic index %: % of not treated control (100%), day 10, HU 100 μM; for mitotic index % / anti-proliferative activity (in words): SPPs 10 μM, Imatinib 10 μM; for anti-proliferative activity (in words): compared with HU 100 μM, HU+ddI or untreated control; for Anti-proliferative capacity: class symbol, Table 6
Method: We built up an experimental model using primary T cells to study the activity of the compounds on induced hyperproliferation of cells, which is a characteristic of both chronic viral diseases and cancer including HIV and leukemia.
as §1

| SMILES | anti-HIV activity in activated T cells (in words) (HIV-1 NL 4.3 [1]) | HIV activated cells (% p24 compared to not treated control) (HIV-1 NL 4.3 [1]) [%] | Antiviral activity in activated cells (HIV-1 NL 4.3 [1]) | apoptotic effect (in words) [2] | apoptosis % [2] [%] | anti-HIV activity in quiescent cells (in words) (HIV-1 NL 4.3 [3]) | Antiviral activity in quiescent cells (HIV-1 NL 4.3 [3]) | HIV quiescent cells (percentage p24 compared to the untreated control) (HIV-1 NL 4.3 [3]) [%] | mitotic index % [4] [%] | anti-proliferative activity (in words) [4] | Anti-proliferative capacity [4] |
| --- | --- | --- | --- | --- | --- | --- | --- | --- | --- | --- | --- |
| CSc1nc(NCCc2cccc(Cl)c2)c2cnn(CC(Cl)c3ccccc3)c2n1 (stereo not shown) [VS1-028] | good anti-HIV activity | 25.7 ± 19.8 | +++ (excellent (+++, greater than 70% activity)) | no more apoptotic than HU | 108.6 ± 30.8 | good anti-HIV activity | +++ (excellent (+++, greater than 70% activity)) | 4.4 ± 2.9 | 15.2 ± 15.7 | good anti-proliferative capacity (superior to 100 μM HU) | +++ (excellent (+++, greater than 70% activity)) |
| CCCNc1nc(N(C)C)nc2c1cnn2CC(Cl)c1ccccc1 (stereo not shown) [VS1-023] |  | 36.6 ± 15.1 |  | not proapoptotic | 116.0 ± 14.7 |  |  | 8.7 ± 5.6 | 33.2 ± 6.5 |  |  |
| C(=Cn1ncc2c(NCCc3ccccc3)ncnc21)c1ccccc1 [VS1-014] |  | 92.4 ± 24.3 |  |  | 135.2 ± 19.3 |  |  | 74.3 ± 22.8 | 76.9 ± 2.7 |  |  |
| C(=Cn1ncc2c(N3CCCCCC3)ncnc21)c1ccccc1 [VS1-001] | very effective inhibitor of HIV replication | 12.5 ± 2.3 |  | did not induce apoptosis | 80.3 ± 19.2 | very effective inhibitor of HIV replication |  | 19.6 ± 20.3 | 52.0 ± 2.0 | less effective than HU |  |
| CSc1nc(N2CCCCCC2)c2cnn(CC(Cl)c3ccccc3)c2n1 (stereo not shown) [VS1-034] |  | 65.0 ± 12.0 |  |  | 115.1 ± 34.5 |  |  | 22.2 ± 7.0 | 25.9 ± 12.9 | comparable or even greater than HU |  |
| CCSc1nc(NCc2ccccc2)c2cnn(CC(Cl)c3ccccc3)c2n1 (stereo not shown) [VS1-020] | effective against HIV | 26.3 ± 6.1 |  | proapoptotic | 174.7 ± 25.9 | effective against HIV |  | 9.2 ± 3.7 | 21.9 ± 13.0 | as anti-proliferative or even better than HU |  |
| CSc1nc(Nc2cccc(Cl)c2)c2cnn(CC(Cl)c3ccc(F)cc3)c2n1 (stereo not shown) [VS1-022] | effective against HIV | 37.1 ± 19.8 |  | proapoptotic | 178.0 ± 25.7 | effective against HIV |  | 5.4 ± 3.1 | 10.4 ± 11.4 | as anti-proliferative or even better than HU |  |
| CCCNc1nc(SC)nc2c1cnn2CC(Cl)c1ccccc1 (stereo not shown) [VS1-031] | effective against HIV | 31.6 ± 21.7 | ++ (good (++, 50 to 70% activity)) | did not induce apoptosis | 114.4 ± 39.9 | effective against HIV | +++ (excellent (+++, greater than 70% activity)) | 19.1 ± 1.8 | 23.9 ± 18.4 | greater or equal to that of 100 μM HU | +++ (excellent (+++, greater than 70% activity)) |
| C(=Cn1ncc2c(NC3CCCCC3)ncnc21)c1ccccc1 [VS1-012] | better anti-HIV activity than HU | 18.6 ± 2.9 |  |  | 46.3 ± 9.1 |  |  | 10.9 ± 5.0 | 68.8 ± 10.7 |  |  |
| CSc1nc(NCc2ccc(Cl)cc2)c2cnn(CC(Cl)c3ccccc3)c2n1 (stereo not shown) [VS1-035] |  | 49.5 ± 8.1 |  | proapoptotic activity | 161.0 ± 13.2 |  |  | 24.0 ± 20.0 | 33.8 ± 11.0 | good anti-proliferative activity, similar to HU |  |
| CCCCNc1ncnc2c1cnn2CC(Cl)c1ccccc1 (stereo not shown) [VS1-008] | good activity | 11.8 ± 5.6 | +++ (excellent (+++, greater than 70% activity)) | did not induce apoptosis | 115.8 ± 39.4 | good activity | +++ (excellent (+++, greater than 70% activity)) | 11.2 ± 7.7 | 8.1 ± 1.8 | good activity against proliferation (even better than HU though 10 times less concentrated) | +++ (excellent (+++, greater than 70% activity)) |
| C(=Cn1ncc2c(N3CCOCC3)ncnc21)c1ccccc1 [VS1-009] | very little activity | 44.8 ± 14.9 |  |  | 114.2 ± 21.3 |  |  | 71.8 ± 42.9 | 88.4 ± 19.8 | very little activity |  |

Source: patent US20120022048A1, “Anti-proliferative substituted pyrazolo[3,4-d]pyrimidines derivatives (SPP) to inhibit immune activation, virus replication and tumor growth” (priority 2010, published 2012)
